{"source": "patent US20180251431A1", "about": "(VERTEX PHARMACEUTICALS INCORPORATED, priority 2016, published 2018)", "key": {"WT mice": {"tested_on": "WT mice", "assay": "Reduction of blood C26:0 LPC in vivo in wild-type mice", "design": "species or system mouse", "details": "blood (DBS), plateau between the 2 mg/kg and 16 mg/kg doses, PO QD 28 days", "procedure": "A LC-MS/MS method of analyzing Lysophosphatidylcholine (LPC) in whole blood (dried blood spot card, DBS) and brain tissue samples was developed for measuring the abundance of saturated C16, C18, C20, C22, C24 and C26 LPC in DBS and brain samples. Whole blood was collected with Whatman DMPK-C DBS card at an approximate volume of 20 μL at each time point. Brain tissue was collected at the end point of the study. Samples were prepared and LC-MS/MS analysis was performed as described below.\nFor DBS bioanalysis, the DBS card was punched at 3 mm in diameter using a semi-automated DBS card puncher. To each punched spot 200 μL of pure methanol was added. The vial was vortexed at low speed for 20 minutes and centrifuged at 4000 rpm for 20 minutes. The clear supernatant was injected onto LC-MS/MS for analysis. […]\nThe supernatant obtained from each sample was injected into a LC-MS/MS system (Agilent Technologies, Santa Clara, Calif. and Applied Biosystems, Framingham, Mass.) for analysis. […] LPCs were detected by an AB Sciex API-6500 triple quadrupole MS with electrospray ionization in the mode of multiple reaction monitoring. Ions of Q1 were monitored at m/z of 496.6, 524.6, 552.6, 580.6, 608.6 and 636.6 for LPC 16:0, LPC 18:0, LPC 20:0, LPC 22:0, LPC 24:0 and LPC 26:0, respectively. […] C16:0 LPC levels were expressed as a concentration. […]"}, "ABCD1 KO mice": {"tested_on": "ABCD1 KO mice", "assay": "Reduction of C26:0 LPC, SC-VLCFA and acyl carnitine levels in ABCD1 KO brains", "format": "in vivo, mouse", "details": "for reduction of brain C26:0 acyl carnitine levels: after 2 months of treatment", "procedure": "To examine the effect of Compound 87 on VLCFA levels in the CNS, female ABCD1 KO mice were treated with vehicle, 1 or 10 mg/kg PO QD for 2 weeks (14 days; n=5 per group), 1 month (28 days; n=5 per group), 2 months (56 days; n=6 per group), or 3 months (84 days; n=6 per group). The brain samples used in this study were from the same mice used in the long term dosing study in ABCD1 knock-out mice and WT mice (see Example 2.3). Brain tissue samples were collected after 2, 4, 8, or 12 weeks of dosing with vehicle or Compound 87. Brain samples were frozen at −70° C. and were analyzed for VLCFA (LPC, SC-VLCFA, acyl-carnitines) via liquid chromatography-mass spectrometry (LCMS) as described below. The vehicle used was 2% TPGS and Compound 87 doses were prepared in 2% TPGS.\nLevels of VLCFA, including straight chain very long chain fatty acids (SC-VLCFA), acyl carnitines, and lysophosphatidylcholines (LPC), in the brain were examined. SC-VLCFA were expected to be rapidly incorporated into other forms and acyl carnitines were expected to be rapidly degraded, contributing to a short expected half-life for these forms. LPC was expected to integrate into membranes, contributing to a longer expected half-life.\nBrain Sample Preparation:\n(i) 3 volumes of MeOH was add to each sample; (ii) homogenized tissue samples with FastPrep (FP120) at 4.5 intensity for 25 seconds; and (iii) aliquoted tissue lysates.\nLPC and Acylcarnitine Extraction with CHCl3/MeOH Liquid-Liquid Extraction:\nAdded 1 mL MeOH, then added 1 mL […] to the brain tissue lysates; incubated 30 minutes at room temperature; added 1 mL CHCl3 and 0.75 mL H2O; incubated 30 minutes; centrifuged max for 10 minutes; transferred lower layer to new vials; organic phase was dried using Turbo-Vac. The resulting residue was re-constituted with MeOH.\n3-Step Chemical Derivatization of SC-VLCFA Using Dimethylaminoethanol (VLCFA-DMAE):\n(i) added oxalyl chloride (2 mol/l oxalyl chloride in CH2Cl2, 200 ul) to the dried mixture, incubated at 65° C. for 5 minutes; (ii) added 60 uL dimethylaminoethanol, incubated at 25° C. for 5 minutes and dried down; (iii) added 100 uL methyl iodide, incubated briefly and dried down. The resulting residue was re-constituted with ethanol (EtOH).\nLCMSMS Detection of VLCFA (e.g., Spingomyelin (SM) and LPC and Derivatized VLCFA (FA-DMAE)):\nLPC Detection: • Column: Discovery C18, 2.1×20 mm • Phase A: 50% MeOH/5 mM AF; Phase B: 2-propanol • MS: 4000 Qtrap operated in ESI MRM positive mode\nFA-DMAE Detection: • Column: Synergi Polar RP, 2×150 mm • Phase A: H2O/0.1% FA; Phase B: ACN/0.1% FA • MS: 4000 Qtrap operated in ESI MRM positive mode"}, "[1]": {"assay": "Blood exposure (AUC) in the 28-day oral dosing study in mice", "format": "in vivo", "details": "ABCD1 knockout (KO), mouse, whole blood (dried blood spots), read-out: Blood area under the concentration time-curve (AUC)"}, "[2]": {"details": "1 mg/kg or 10 mg/kg PO QD, after 2 weeks of dosing"}}, "note": "Read-outs that look alike come from different tables or passages of the source.", "data": [{"smiles": "O=C(Nc1ccn(-c2ccnc(F)c2)n1)C1(c2ccccc2F)CC1", "note": "[Compound 87, 1-(2-fluorophenyl)-N-[1-(2-fluoro-4-pyridyl)pyrazol-3-yl]cyclopropanecarboxamide]", "values": [{"measurement": "reduction in C26:0 LPC levels (maximal effect plateau)", "setting": "WT mice", "result": "~65", "unit": "%"}, {"measurement": "reduction in brain C26:0 LPC", "setting": "ABCD1 KO mice; 1 mg/kg PO QD, 2 months", "result": "~30", "unit": "%"}, {"measurement": "reduction of brain C26:0 SC-VLCFA levels", "setting": "ABCD1 KO mice; 1 mg/kg PO QD, 2 months", "result": "about 30%"}, {"measurement": "reduction in brain C26:0 LPC", "setting": "ABCD1 KO mice; 1 mg/kg PO QD, 3 months", "result": "~30", "unit": "%"}, {"measurement": "reduction of brain C26:0 SC-VLCFA levels", "setting": "ABCD1 KO mice; 1 mg/kg PO QD, 3 months", "result": "about 50%"}, {"measurement": "reduction of brain C26:0 acyl carnitine levels", "setting": "ABCD1 KO mice; 1 mg/kg PO QD", "result": "~50", "unit": "%"}, {"measurement": "brain C24:0 LPC levels (normalized by C16:0 LPC levels)", "setting": "ABCD1 KO mice; 1 mg/kg or 10 mg/kg PO QD, 3 months", "result": "significant reduction"}, {"measurement": "brain LPC levels", "setting": "ABCD1 KO mice; [2]", "result": "no changes"}, {"measurement": "brain SC-VLCFA levels", "setting": "ABCD1 KO mice; [2]", "result": "no changes"}, {"measurement": "reduction in brain C26:0 LPC", "setting": "ABCD1 KO mice; 10 mg/kg PO QD, 2 months", "result": "~40", "unit": "%"}, {"measurement": "reduction of brain C26:0 SC-VLCFA levels", "setting": "ABCD1 KO mice; 10 mg/kg PO QD, 2 months", "result": "about 55%"}, {"measurement": "reduction of brain C26:0 acyl carnitine levels", "setting": "ABCD1 KO mice; 10 mg/kg PO QD", "result": "~70", "unit": "%"}, {"measurement": "brain C24:0 SC-VLCFA level", "setting": "ABCD1 KO mice; 10 mg/kg PO QD, after 3 months of dosing", "result": "significant reduction"}, {"measurement": "AUC", "setting": "[1]; 4 mg/kg PO QD", "result": 1950, "unit": "ng·h/mL"}, {"measurement": "AUC", "setting": "[1]; 8 mg/kg PO QD", "result": 3490, "unit": "ng·h/mL"}]}]}
